The text below walks through data of PubChem BioAssay AID330 (DTP/NCI, 2004).

“And” between values parts separate entries of the source, which are not always exact repeats. Identical values can stand only once. Inconclusive results and toxic doses are left out.

The assay concerns P388 leukemia ip, CD2F1 mice, survival T/C. In words: NCI In Vivo Anticancer Drug Screen. Data for tumor model P388 Leukemia (intraperitoneal) in CD2F1 (CDF1) mice. Conditions: endpoint: median survival time, higher = longer survival. The gist of the method: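 Mice carrying the transplanted tumor received test compound or vehicle. Survival was recorded in each group, and the value is the treated-group measurement divided by that of the vehicle-treated control group.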

[1] abbreviates: dose: 50.0 mg/kg/injection, schedule: Q04DX003 (ip), vehicle: saline with Tween-80.
[2] abbreviates: dose: 100.0 mg/kg/injection, schedule: Q04DX003 (ip), vehicle: saline with Tween-80.
Where [3] appears, read: dose: 200.0 mg/kg/injection, schedule: Q04DX003 (ip), vehicle: saline with Tween-80.
Where [4] appears, read: dose: 50.0 mg/kg/injection, schedule: Q01DX009 (ip), vehicle: saline with Tween-80.
[5] abbreviates: dose: 50.0 mg/kg/injection, schedule: Q01DX005 (ip), vehicle: saline with Tween-80.
The mark [6] stands for this setting: dose: 100.0 mg/kg/injection, schedule: Q01DX005 (ip), vehicle: saline with Tween-80.
The mark [7] stands for this setting: dose: 200.0 mg/kg/injection, schedule: Q01DX005 (ip), vehicle: saline with Tween-80.
The mark [8] stands for this setting: dose: 100.0 mg/kg/injection, schedule: Q04DX003 (ip), vehicle: saline.
The mark [9] stands for this setting: dose: 200.0 mg/kg/injection, schedule: Q04DX003 (ip), vehicle: saline.
Setting [10] is: dose: 100.0 mg/kg/injection, schedule: Q01DX001 (ip), vehicle: saline.
[11] abbreviates: dose: 200.0 mg/kg/injection, schedule: Q01DX001 (ip), vehicle: saline.
Where [12] appears, read: dose: 400.0 mg/kg/injection, schedule: Q01DX001 (ip), vehicle: saline.
[13] abbreviates: dose: 100.0 mg/kg/injection, schedule: Q01DX001 (ip), vehicle: Klucel (hydroxypropylcellulose) (HPC).
Where [14] appears, read: dose: 200.0 mg/kg/injection, schedule: Q01DX001 (ip), vehicle: Klucel (hydroxypropylcellulose) (HPC).
Setting [15] is: dose: 60.0 mg/kg/injection, schedule: Q01DX005 (ip), vehicle: saline with Tween-80.
[16] abbreviates: dose: 120.0 mg/kg/injection, schedule: Q01DX005 (ip), vehicle: saline with Tween-80.
The mark [17] stands for this setting: dose: 240.0 mg/kg/injection, schedule: Q01DX005 (ip), vehicle: saline with Tween-80.
[18] abbreviates: dose: 100.0 mg/kg/injection, schedule: Q01DX009 (ip), vehicle: saline with Tween-80.
Setting [19] is: dose: 200.0 mg/kg/injection, schedule: Q01DX009 (ip), vehicle: saline with Tween-80.

Take `Nc1cc2c(c[n+](CCC[n+]3cc4c5ccccc5c(N)cc4c4ccccc43)c3ccccc23)c2ccccc12`: the T/C is, setting by setting: (dose: 3.13 mg/kg/injection, schedule: Q04DX003 (ip), vehicle: other) 94 % of control; (dose: 6.25 mg/kg/injection, schedule: Q04DX003 (ip), vehicle: other) 102 % of control; (dose: 12.5 mg/kg/injection, schedule: Q04DX003 (ip), vehicle: other) 93 % of control; (dose: 25.0 mg/kg/injection, schedule: Q04DX003 (ip), vehicle: other) 92 % of control; (dose: 50.0 mg/kg/injection, schedule: Q04DX003 (ip), vehicle: other) 93 % of control; (dose: 100.0 mg/kg/injection, schedule: Q04DX003 (ip), vehicle: other) 86 % of control.

As for `CC(=O)c1cccc(NC2C(N)C(NC(=O)N(C)C)(C(C)O)C(C)(O)C2(O)COC(=O)c2c(C)cccc2O)c1` (configuration not stated), the T/C was 86 % of control (dose: 0.5 mg/kg/injection, schedule: Q01DX009 (ip), vehicle: other); 153 % of control (dose: 1.0 mg/kg/injection, schedule: Q01DX009 (ip), vehicle: other); 86 % of control (dose: 1.5 mg/kg/injection, schedule: Q01DX009 (ip), vehicle: acid diluted with saline).

As to `CC(C)n1c2c([n+](C)c1/C=C/c1ccccc1)C(=O)c1ccccc1C2=O`, the T/C was 109 % of control (dose: 0.44 mg/kg/injection, schedule: Q01DX009 (ip), vehicle: saline); 116 % of control (dose: 0.66 mg/kg/injection, schedule: Q01DX009 (ip), vehicle: saline); 119 % of control (dose: 1.0 mg/kg/injection, schedule: Q01DX009 (ip), vehicle: saline); 112 % of control (dose: 1.5 mg/kg/injection, schedule: Q01DX009 (ip), vehicle: saline).

Regarding `N#CCCN(CCc1ccccn1)C(=S)Nc1cccc(C(F)(F)F)c1`, the T/C runs as follows: under setting [1], 99 % of control; under setting [2], 101 % of control; under setting [3], 100 % of control; (dose: 400.0 mg/kg/injection, schedule: Q04DX003 (ip), vehicle: saline with Tween-80) 101 % of control.

In the case of `Nc1nn(-c2cccc(C(F)(F)F)c2)c2cccc[n+]12`, the T/C was 100 % of control (dose: 12.5 mg/kg/injection, schedule: Q01DX009 (ip), vehicle: saline with Tween-80); 105 % of control (dose: 25.0 mg/kg/injection, schedule: Q01DX009 (ip), vehicle: saline with Tween-80); 111 % of control (dose: 25.0 mg/kg/injection, schedule: Q01DX009 (ip), vehicle: water); 100 % of control under setting [4]; 106 % of control (dose: 50.0 mg/kg/injection, schedule: Q01DX009 (ip), vehicle: water).

Consider `CCC(Oc1c2ccoc2c(OC)c2oc(C)cc(=O)c12)C(=O)OCCN1CCOCC1` (configuration not stated), for which the T/C is 102 % of control under setting [5], 104 % of control under setting [6] and 98 % of control under setting [7].

In the case of `[Cl][Pd][Cl].[NH-]C(C(=O)O)c1ccccc1.[NH-]C(C(=O)O)c1ccccc1` (configuration not stated), the T/C runs as follows: under setting [8], 103 % of control; under setting [9], 97 % of control; (dose: 400.0 mg/kg/injection, schedule: Q04DX003 (ip), vehicle: saline) 109 % of control.

Take `NNc1ncc(S(=O)(=O)Cc2ccc3c(c2)OCO3)c(N)n1`: the T/C is 101 % of control under setting [10], 98 % of control under setting [11] and 98 % of control under setting [12].

Regarding `CCCCCCCCCCCC[C@@H](O)[C@H]1CC[C@H]([C@H](O)CCCC[C@H](O)CCCCC[C@@H](O)CC2=C[C@H](C)OC2=O)O1`, the T/C was 113 % of control (dose: 0.75 mg/kg/injection, schedule: Q01DX009 (ip), vehicle: other) and 105 % of control (dose: 1.5 mg/kg/injection, schedule: Q01DX009 (ip), vehicle: other).

As for `CC1CC2OC(=O)C(CN3CC3)C2CC2(C)C(O)CC(O)C12` (configuration not stated), the T/C (dose: 25.0 mg/kg/injection, schedule: Q04DX002 (ip), vehicle: saline with Tween-80) was 108 % of control and 93 % of control; the T/C (dose: 50.0 mg/kg/injection, schedule: Q04DX002 (ip), vehicle: saline with Tween-80) was 101 % of control and 113 % of control; the T/C (dose: 100.0 mg/kg/injection, schedule: Q04DX002 (ip), vehicle: saline with Tween-80) was 102 % of control and 113 % of control.

`CCN1/C(=C/C=C/C=C\C=C\c2sc3ccc4ccccc4c3[n+]2CC)Sc2ccc3ccccc3c21`: the T/C by setting is: (dose: 1.56 mg/kg/injection, schedule: Q04DX002 (ip), vehicle: saline with Tween-80) 153 % of control and 168 % of control; (dose: 3.12 mg/kg/injection, schedule: Q04DX002 (ip), vehicle: saline with Tween-80) 166 % of control; (dose: 6.25 mg/kg/injection, schedule: Q04DX002 (ip), vehicle: saline with Tween-80) 156 % of control and 171 % of control; (dose: 12.5 mg/kg/injection, schedule: Q04DX002 (ip), vehicle: saline with Tween-80) 159 % of control and 171 % of control and 186 % of control.

For `CC(=O)OCc1c(Cl)nc2sccn12`, the T/C is, setting by setting: under setting [13], 104 % of control and 108 % of control; under setting [14], 109 % of control and 117 % of control.

Take `O=C1OC(c2cccc(Cl)c2)=N/C1=C\C=C/c1ccccc1`: the T/C is, setting by setting: (dose: 50.0 mg/kg/injection, schedule: Q01DX009 (ip), vehicle: suspension in saline) 93 % of control; (dose: 100.0 mg/kg/injection, schedule: Q01DX009 (ip), vehicle: suspension in saline) 93 % of control.

For the compound `COc1cccc(C(Nc2nncs2)Nc2nncs2)c1[N+](=O)[O-]`, the T/C is 98 % of control under setting [15], 98 % of control under setting [16] and 101 % of control under setting [17].

Turning to `NC(/N=C/c1cc(Cl)cc(Cl)c1O)=N\S(=O)(=O)c1ccc(N=Cc2cc(Cl)cc(Cl)c2O)cc1`, the T/C reads like this: under setting [4], 98 % of control; under setting [18], 91 % of control; under setting [19], 98 % of control.

Regarding `Nc1nc(Cl)c(Cl)nc1N`, the T/C was 110 % of control under setting [4]; 100 % of control under setting [1]; 105 % of control under setting [18]; 100 % of control under setting [2]; 110 % of control under setting [19]; 95 % of control under setting [3].

As to `ClC(Cl)=[C](Cl)[Hg][C](Cl)=C(Cl)Cl`, the T/C by setting is: (dose: 3.13 mg/kg/injection, schedule: Q01DX009 (ip), vehicle: Klucel (hydroxypropylcellulose) (HPC)) 105 % of control; (dose: 6.25 mg/kg/injection, schedule: Q01DX009 (ip), vehicle: Klucel (hydroxypropylcellulose) (HPC)) 100 % of control; (dose: 12.5 mg/kg/injection, schedule: Q01DX009 (ip), vehicle: Klucel (hydroxypropylcellulose) (HPC)) 97 % of control.

As for `CC(N)CN1CC(C)N=C1c1ccncc1` (configuration not stated), the T/C was 102 % of control (dose: 50.0 mg/kg/injection, schedule: Q01DX009 (ip), vehicle: saline); 98 % of control (dose: 100.0 mg/kg/injection, schedule: Q01DX009 (ip), vehicle: saline); 99 % of control (dose: 200.0 mg/kg/injection, schedule: Q01DX009 (ip), vehicle: saline).

As for `COC1(c2ccccc2)C(c2ccccc2)=CC(c2ccccc2)=[N+]1[O-]` (configuration not stated), the T/C runs as follows: (dose: 50.0 mg/kg/injection, schedule: Q04DX003 (ip), vehicle: saline) 95 % of control; under setting [8], 109 % of control; under setting [9], 95 % of control.

For `O=C(Nc1ccc(C(=O)Nc2cccc(C3=NCCN3)c2)cc1)Nc1ccc(C(=O)Nc2cccc(C3=NCCN3)c2)cc1`, the T/C was 108 % of control under setting [10], 100 % of control under setting [11] and 116 % of control under setting [12].

On to `OC1CC2CCCCC2CC1C1CCCCC1` (configuration not stated), for which the T/C under setting [13] is 90 % of control; the T/C under setting [14] is 91 % of control; the T/C (dose: 400.0 mg/kg/injection, schedule: Q01DX001 (ip), vehicle: Klucel (hydroxypropylcellulose) (HPC)) was 94 % of control.

Consider `COc1cc2c(cc1C(C)(C)c1ccccc1)OCO2`, for which the T/C is 99 % of control under setting [5], 100 % of control under setting [6] and 101 % of control under setting [7].

Take `COc1ccc2[nH]c(C)c(CN(C(C)=O)C(C)=O)c(=O)c2c1`: the T/C was 103 % of control under setting [15], 112 % of control under setting [16] and 86 % of control under setting [17].
